PubChem BioAssay AID1963844 (Molecular Pharmacology Branch, DTP, NCI, 2024)

Tested on: 422866-222-R5-J1-PDC complex spheroid viability
Experiment: Anticancer human tumor 422866-222-R5-J1-PDC patient-derived pancreatic adenocarcinoma cell line growth inhibition [POLQ]
Conditions: for IC50: curve of first compound; for viability, T/C: stronger effect = lower value
Description: Multicellular complex tumor spheroid response to Polymerase (POL) inhibitors (novobiocin, ART-558, RP6685) in combination with a variety of drugs and investigational agents in selected tumor cell lines
The POL inhibitors (novobiocin, ART-558, and RP6685) were evaluated both individually and in combination with standard of care and investigational anticancer small molecules within a complex spheroid model of solid tumors. . Complex spheroids include a stromal component modeled by human endothelial cells (HUVEC) and fibroblasts modeled by human mesenchymal stem cells (MSCs). The concentration ranges selected for each drug and investigational agent were based upon clinically achievable concentrations if the clinical Cmax of the agent was known.
Compounds. The drugs and investigational agents: novobiocin (NSC847541), ART-558 (NSC835418), RP-6685 (NSC848927), peposertib (NSC802822), ceralasertib (NSC780249), elimusertib (NSC800525), camonsertib (NSC841442), AZD-1390 (NSC803789), olaparib (NSC753686), talazoparib (NSC767125), rucaparib (NSC756644), sotorasib (NSC818433), MRTX-1133 (NSC836407), SN-38 (NSC673596), topotecan (NSC609699), epotoside (NSC141540), doxorubicin (NSC123127), gemcitabine (NSC613327), 5-fluorouracil (NSC19893), paclitaxel (NSC125973), vemurafenib (NSC761431), MSA-2 (NSC828583), SN-011 (NSC837082), adavosertib (NSC754352), prexasertib (NSC758257), carboplatin (NSC241240) and oxaliplatin (NSC266046), were obtained from the National Cancer Institute (NCI) Developmental Therapeutics Program Chemical Repository (21). The FDA-approved anticancer drug set is available from the Developmental Therapeutics Program at https://dtp.cancer.gov/organization/dscb/obtaining/. […] The stock solutions were prepared in dimethyl sulfoxide (DMSO, Sigma-Aldrich, St. Louis, MO, cat. D2650), except for the platinum compounds which were prepared in saline (Quality Biological, Gaithersburg, MD, cat. 114-055-101), at 800-fold the tested concentration and stored at -70 degrees C prior to their use. All drugs and investigational agents were tested over a range starting from a high concentration at or near the clinical Cmax and decreasing in half-log increments. If the clinical Cmax for an agent had not been determined, the highest concentration tested was 10 microM, except for SN-38, which was tested at a high concentration of 1 microM.
Cell Culture. All cells were maintained in an incubator at 37 degrees C and 5% CO2 with 95% humidity. The PDC lines were cultured according to standard operating procedures established by the NCI PDMR (https://pdmr.cancer.gov). Table 3 of the manuscript, lists the cell lines along with the number of the three cell types plated to form the mct-spheroids and media for tumor cell growth. After thawing, all PDC lines, except 997537-175-T-J1-PDC and 415267-285-R-J2-PDC, were cultured in Matrigel-coated flasks prepared with a working solution of 1X Ham's F-12 nutrient mix, without supplementation (Thermo Fisher Scientific, cat. 11765054), 100 U/mL penicillin-streptomycin (Thermo Fisher Scientific, cat. 15140122), and 2.5% Matrigel (Corning Inc., Corning, NY, cat. 354248) for the first three passages. The two PDC lines 997537-175-T-J1-PDC and 415267-285-R-J2-PDC were cultured on uncoated flasks. The 857933-349-R-J2-PDC line was cultured in 6C/Colon 1B media containing advanced DMEM/F-12 (Thermo Fisher Scientific, cat. 12634028), 10 mM HEPES (Thermo Fisher Scientific, cat. 15630080), 1X GlutaMAX supplement (Thermo Fisher Scientific, cat. 35050061), 0.1 mg/mL primocin (InvivoGen, San Diego, CA, cat. ant-pm-2), 10% defined fetal bovine serum, heat inactivated (HyClone Laboratories Inc., Logan, UT, cat. SH30070.03HI), 50% L-WRN conditioned media (ATCC, cat. CRL-3276), 1.25 mM N-Acetyl-L-cysteine (Sigma-Aldrich, cat. A9165), 10 mM nicotinamide (Sigma-Aldrich, cat. N0636), 1X B-27 supplement (Thermo Fisher Scientific, cat. 17504044), 1X N-2 supplement (Thermo Fisher Scientific, cat. […]

[1] = second compound 0.0316 µM, first compound 0.0316 µM
[2] = second compound 0.0316 µM, first compound 0.1 µM
[3] = second compound 0.0316 µM, first compound 0.316 µM
[4] = second compound 0.0316 µM, first compound 1 µM
[5] = second compound 0.1 µM, first compound 0.0316 µM
[6] = second compound 0.1 µM, first compound 0.1 µM
[7] = second compound 0.1 µM, first compound 0.316 µM
[8] = second compound 0.1 µM, first compound 1 µM
[9] = second compound 0.316 µM, first compound 0.0316 µM
[10] = second compound 0.316 µM, first compound 0.1 µM
[11] = second compound 0.316 µM, first compound 0.316 µM
[12] = second compound 0.316 µM, first compound 1 µM
[13] = second compound 1 µM, first compound 0.0316 µM
[14] = second compound 1 µM, first compound 0.1 µM
[15] = second compound 1 µM, first compound 0.316 µM
[16] = second compound 1 µM, first compound 1 µM
[17] = second compound 3.16 µM, first compound 0.0316 µM
[18] = second compound 3.16 µM, first compound 0.1 µM
[19] = second compound 3.16 µM, first compound 0.316 µM
[20] = second compound 3.16 µM, first compound 1 µM
[21] = second compound 10 µM, first compound 0.0316 µM
[22] = second compound 10 µM, first compound 0.1 µM
[23] = second compound 10 µM, first compound 0.316 µM
[24] = second compound 10 µM, first compound 1 µM
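Also: spheroids exposed to compounds for one week before readout.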
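For viability, T/C in this document: percent of DMSO vehicle wells luminescence so 100% = untreated viability.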

COc1cccc(OCCCN)c1-c1cc(Nc2cnc(C#N)cn2)n[nH]1 + Cc1cccc(N(C)C(=O)C2C(O)CCN2c2nc(C)cc(C(F)(F)F)c2C#N)c1
IC50 (second compound 0.0316 µM): 5.54 nM
IC50 (second compound 0.1 µM): 6.74 nM
IC50 (second compound 0.316 µM): 6.63 nM
IC50 (second compound 1 µM): 6.92 nM
IC50 (second compound 3.16 µM): 5.11 nM
IC50 (second compound 10 µM): < 3.16 nM
viability, T/C (second compound 0.0316 µM, first compound 0.00316 µM): 65.4%
viability, T/C (second compound 0.0316 µM, first compound 0.01 µM): 30.4%
viability, T/C [1]: 30.1%
viability, T/C [2]: 26.9%
viability, T/C [3]: 36.6%
viability, T/C [4]: 43.4%
viability, T/C (second compound 0.1 µM, first compound 0.00316 µM): 72.7%
viability, T/C (second compound 0.1 µM, first compound 0.01 µM): 37.7%
viability, T/C [5]: 31.4%
viability, T/C [6]: 27.3%
viability, T/C [7]: 45.7%
viability, T/C [8]: 45.6%
viability, T/C (second compound 0.316 µM, first compound 0.00316 µM): 74.4%
viability, T/C (second compound 0.316 µM, first compound 0.01 µM): 32.5%
viability, T/C [9]: 35%
viability, T/C [10]: 30.1%
viability, T/C [11]: 51.8%
viability, T/C [12]: 32.2%
viability, T/C (second compound 1 µM, first compound 0.00316 µM): 77.7%
viability, T/C (second compound 1 µM, first compound 0.01 µM): 37.8%
viability, T/C [13]: 28.8%
viability, T/C [14]: 32.5%
viability, T/C [15]: 25.9%
viability, T/C [16]: 43.8%
viability, T/C (second compound 3.16 µM, first compound 0.00316 µM): 58.3%
viability, T/C (second compound 3.16 µM, first compound 0.01 µM): 39.3%
viability, T/C [17]: 30.4%
viability, T/C [18]: 35.7%
viability, T/C [19]: 29.8%
viability, T/C [20]: 50.1%
viability, T/C (second compound 10 µM, first compound 0.00316 µM): 68.1%
viability, T/C (second compound 10 µM, first compound 0.01 µM): 30.3%
viability, T/C [21]: 36.4%
viability, T/C [22]: 30.5%
viability, T/C [23]: 35.9%
viability, T/C [24]: 54.9%

O=C(c1cc(Cc2n[nH]c(=O)c3ccccc23)ccc1F)N1CCN(C(=O)C2CC2)CC1 + Cc1cccc(N(C)C(=O)C2C(O)CCN2c2nc(C)cc(C(F)(F)F)c2C#N)c1
IC50 (second compound 0.0316 µM): > 10000 nM
IC50 (second compound 0.1 µM): > 10000 nM
IC50 (second compound 0.316 µM): > 10000 nM
IC50 (second compound 1 µM): > 10000 nM
IC50 (second compound 3.16 µM): > 10000 nM
IC50 (second compound 10 µM): > 10000 nM
viability, T/C [1]: 87.5%
viability, T/C [2]: 103%
viability, T/C [3]: 89.9%
viability, T/C [4]: 92.9%
viability, T/C (second compound 0.0316 µM, first compound 3.16 µM): 89.7%
viability, T/C (second compound 0.0316 µM, first compound 10 µM): 68.2%
viability, T/C [5]: 95.3%
viability, T/C [6]: 104%
viability, T/C [7]: 99%
viability, T/C [8]: 87.4%
viability, T/C (second compound 0.1 µM, first compound 3.16 µM): 87.5%
viability, T/C (second compound 0.1 µM, first compound 10 µM): 81.7%
viability, T/C [9]: 117%
viability, T/C [10]: 95.9%
viability, T/C [11]: 107%
viability, T/C [12]: 97.6%
viability, T/C (second compound 0.316 µM, first compound 3.16 µM): 97.5%
viability, T/C (second compound 0.316 µM, first compound 10 µM): 67.3%
viability, T/C [13]: 96.2%
viability, T/C [14]: 94.4%
viability, T/C [15]: 86%
viability, T/C [16]: 90.5%
viability, T/C (second compound 1 µM, first compound 3.16 µM): 82.2%
viability, T/C (second compound 1 µM, first compound 10 µM): 68%
viability, T/C [17]: 87.3%
viability, T/C [18]: 104%
viability, T/C [19]: 104%
viability, T/C [20]: 107%
viability, T/C (second compound 3.16 µM, first compound 3.16 µM): 86.1%
viability, T/C (second compound 3.16 µM, first compound 10 µM): 68%
viability, T/C [21]: 104%
viability, T/C [22]: 107%
viability, T/C [23]: 97.7%
viability, T/C [24]: 89.8%
viability, T/C (second compound 10 µM, first compound 3.16 µM): 80.3%
viability, T/C (second compound 10 µM, first compound 10 µM): 76.4%
